Reference: paper PMC10553838, “Functional and structural insights into the multi-step activation and catalytic mechanism of bacterial ExoY nucleotidyl cyclase toxins bound to actin-profilin” (PLOS Pathogens, 2023)

Assays:
Format in all cases: biochemical
[1] = biological target: T1, Vn-ExoY (Vn-ExoY^455-863) activated by G-actin-ATP/ADP-LatB (Vibrio nigripulchritudo, UniProt A0A9P1NJI6); experiment: cCMP synthesis, [alpha-33P]NTP assay; details: 2 mM CTP, MgCl2, 6 uM LatB-Mg-G-actin, pH 8.0, 30 °C; labelled compound
T1 construct: gene VIBNI_0210; ExoY effector domain of MARTX toxin, residues 3455-3863, N-terminal twin-Strep-tag with PreScission site (cleaved for crystals), E. coli BL21(DE3); with rabbit skeletal muscle G-actin; with Actin, alpha skeletal muscle

[2] = biological target: T2, Pa-ExoY activated by F-actin (Pseudomonas aeruginosa, UniProt O85345); experiment: cUMP synthesis, [alpha-33P]NTP assay; details: 2 mM UTP, MgCl2, 6 uM Mg-F-actin, pH 8.0, 30 °C; labelled compound
T2 construct: residues 20-378, N-terminal twin-Strep-tag (ST2), E. coli BL21(DE3), 44 kDa monomer; with Actin, alpha skeletal muscle

[3] = biological target: T2, Pa-ExoY activated by F-actin; experiment: cGMP synthesis, [alpha-33P]NTP assay; details: 2 mM GTP, MgCl2, 3 uM Mg-F-actin, pH 8.0, 30 °C; labelled compound

Nc1ccn([C@@H]2O[C@H](COP(=O)(O)OP(=O)(O)OP(=O)(O)O)[C@@H](O)[C@H]2O)c(=O)n1 [CTP]
cCMP synthesis, [alpha-33P]NTP assay [1]: cCMP synthesis catalysed by wild-type or mutants of Vn-ExoY activated by G-actin

O=c1ccn([C@@H]2O[C@H](COP(=O)(O)OP(=O)(O)OP(=O)(O)O)[C@@H](O)[C@H]2O)c(=O)[nH]1 [UTP]
cUMP synthesis, [alpha-33P]NTP assay [2]: cCMP and cUMP synthesis catalysed by wild-type or mutants of Pa-ExoY activated by F-actin

Nc1nc2c(ncn2[C@@H]2O[C@H](COP(=O)(O)OP(=O)(O)OP(=O)(O)O)[C@@H](O)[C@H]2O)c(=O)[nH]1 [GTP]
cGMP synthesis, [alpha-33P]NTP assay [3]: cGMP synthesis catalysed by wild-type or mutants of Pa-ExoY activated by F-actin
